Measurements taken from paper PMC7559934, “Characterization of Resveratrol, Oxyresveratrol, Piceatannol and Roflumilast as Modulators of Phosphodiesterase Activity. Study of Yeast Lifespan” (Pharmaceuticals, 2020).

Assays:
[1] = target: T1, yPDE2 (high-affinity phosphodiesterase type 2) (Saccharomyces cerevisiae, UniProt P06776); assay: HPLC-UV assay of cAMP hydrolysis; Ki converted from I50 (competitive equation); type: biochemical; settings: read-out: Inhibitors
T1 construct: gene PDE2
T1 sequence (P06776 1-526): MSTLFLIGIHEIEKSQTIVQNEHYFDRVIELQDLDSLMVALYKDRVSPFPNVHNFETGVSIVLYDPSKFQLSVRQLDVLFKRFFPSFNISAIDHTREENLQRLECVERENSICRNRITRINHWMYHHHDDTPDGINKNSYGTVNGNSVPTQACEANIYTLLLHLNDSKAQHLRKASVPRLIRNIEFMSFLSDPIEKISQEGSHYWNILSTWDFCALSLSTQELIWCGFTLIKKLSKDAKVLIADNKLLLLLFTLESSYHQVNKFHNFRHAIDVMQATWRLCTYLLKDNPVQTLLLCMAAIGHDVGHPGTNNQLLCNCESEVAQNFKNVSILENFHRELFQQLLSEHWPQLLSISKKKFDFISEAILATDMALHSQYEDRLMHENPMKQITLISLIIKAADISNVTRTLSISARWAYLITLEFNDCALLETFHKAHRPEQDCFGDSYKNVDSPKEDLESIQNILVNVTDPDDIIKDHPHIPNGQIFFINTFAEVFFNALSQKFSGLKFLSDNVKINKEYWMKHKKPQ

[2] = target: T1, yPDE2 (high-affinity phosphodiesterase type 2); assay: HPLC-UV assay of cAMP hydrolysis; Lineweaver-Burk and Km app/Km plot at several inhibitor concentrations; type: biochemical; settings: read-out: Inhibitors

Ki [1] | Ki [2] | SMILES
0.3 ± 0.02 µM | – | O=C(Nc1c(Cl)cncc1Cl)c1ccc(OC(F)F)c(OCC2CC2)c1 [roflumilast]
50 ± 5 µM | – | Oc1cc(O)cc(/C=C/c2ccc(O)c(O)c2)c1 [piceatannol]
– | 63 ± 3 µM | Oc1ccc(/C=C/c2cc(O)cc(O)c2)cc1 [resveratrol]

SMILES | Ki [1] | Ki [2]
Oc1cc(O)cc(/C=C/c2ccc(O)cc2O)c1 [oxyresveratrol] | 46 ± 4 µM | –
